This note sets out measurements from patent publication US20240190849A1, “AMINOPYRIMIDINE COMPOUNDS AND METHODS OF THEIR USE” (TYRA BIOSCIENCES, INC., priority 2021, published 2024).

Structures are written as SMILES.

In assay [1] the target is T1, FGFR3 (V555M) (Homo sapiens, UniProt P22607, V555M).
T1 construct: made in house; host or cells: E. coli derived from BL21, infected with T7 phage
The assay is described as follows: Kinase binding assay (kinase-tagged T7 phage, affinity beads, qPCR readout), FGFR3 (V555M). Particulars: FGFR binding data. The procedure, abridged:
(§1)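 Competition binding: T7 phage-tagged kinases incubated with immobilized biotinylated ligand beads and test compound (11-point 3-fold series, 0.9% DMSO final) for 1 h at room temperature. Bound kinase eluted and quantified by qPCR. Kd from Hill equation fit, slope fixed at −1.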

In assay [2] the target is T2, FGFR1 (Homo sapiens, UniProt P11362).
T2 construct: made in house; host or cells: E. coli derived from BL21, infected with T7 phage
The assay is described as follows: Kinase binding assay (kinase-tagged T7 phage, affinity beads, qPCR readout), FGFR1. As to conditions: FGFR binding data. The procedure, abridged: as §1

Assay [3] deals with T3, FGFR3 (Homo sapiens, UniProt P22607).
T3 construct: made in house; host or cells: E. coli derived from BL21, infected with T7 phage
The assay is described as follows: Kinase binding assay (kinase-tagged T7 phage, affinity beads, qPCR readout), FGFR3. Particulars: FGFR binding data. The procedure, abridged:
as §1

Assay [4] has as its system SNU-16 (Gastric Carcinoma), FGFR2 amplification. Put plainly: Cancer cell viability assay (Cell Titer-Glo), SNU-16. The assay is classed as cell-based. Particulars: Homo sapiens, SNU-16 cells, 72 hours, read-out: SNU16 FGFR2 (IC50 nM). The source says:
RT112/84, UM-UC-14, SNU-16 and KG-1 Cancer Cell Line Cell Viability Assays
To detect the change of intracellular ATP by Cell Titer-Glo@ and to evaluate the inhibitory effect of the compounds on cancer cell lines by determining the in vitro IC50 value of the compounds.
Cell Titer-Glo@ 2.0 Luminescent cell viability assay reagent was purchased from Promega (Madison, WI). RT112/84, SNU-16, and KG-1 cell lines were purchased from American Type Culture Collection (Manassas, VA). UM-UC-14 cell line was purchased from Sigma (St. Louis, MO). RT112/84, UM-UC-14, SNU-16, and KG-1 cells were cultured in RPMI1640 media supplemented with 10% fetal bovine serum. Cultures were maintained at 37° C. in a humidified atmosphere of 5% CO2 and 95% air.
Cell Viability Assay Procedure: Cells were plated in 96-well clear bottom/white plates (Corning #3903) at 10,000 cells/well in 100 μl of media, incubated overnight. The next day, test compound DMSO stock solutions were made at 10 mM and 2 μM final concentration. Compounds were then added to cells in a 9-dose, […] dilution series starting at 30 μM with an HP 300e Digital Dispenser (each dose was applied in triplicate). DMSO was backfilled to each well up to 301 nL total volume of test compound+DMSO, and a total of 301 nL DMSO was added to a control/no test compound well in triplicate. The cells in cell culture plates were incubated with the compounds at 37° C. and 5% CO2 for 72 hours. Then 50 μl of Cell Titer Glo 2.0 reagent was added to each well of the cell culture plates. The contents were covered from light and mixed on an orbital shaker at room temperature for 10 min. Luminescence was recorded by a Synergy H1 Microplate Reader (Biotek, Winooski, VT). Cells were assessed as a percentage of DMSO only treated control cells. Curves were plotted and IC50 values were calculated using the GraphPad Prism 8 program based on a sigmoidal dose-response equation (4 parameter).

For assay [5], the target named is T4, FGFR2 (Homo sapiens, UniProt P21802).
T4 construct: made in house; host or cells: E. coli derived from BL21, infected with T7 phage
The assay is described as follows: Kinase binding assay (kinase-tagged T7 phage, affinity beads, qPCR readout), FGFR2. As to conditions: FGFR binding data. The method, boiled down:
as §1

T4 sequence (P21802 22-821): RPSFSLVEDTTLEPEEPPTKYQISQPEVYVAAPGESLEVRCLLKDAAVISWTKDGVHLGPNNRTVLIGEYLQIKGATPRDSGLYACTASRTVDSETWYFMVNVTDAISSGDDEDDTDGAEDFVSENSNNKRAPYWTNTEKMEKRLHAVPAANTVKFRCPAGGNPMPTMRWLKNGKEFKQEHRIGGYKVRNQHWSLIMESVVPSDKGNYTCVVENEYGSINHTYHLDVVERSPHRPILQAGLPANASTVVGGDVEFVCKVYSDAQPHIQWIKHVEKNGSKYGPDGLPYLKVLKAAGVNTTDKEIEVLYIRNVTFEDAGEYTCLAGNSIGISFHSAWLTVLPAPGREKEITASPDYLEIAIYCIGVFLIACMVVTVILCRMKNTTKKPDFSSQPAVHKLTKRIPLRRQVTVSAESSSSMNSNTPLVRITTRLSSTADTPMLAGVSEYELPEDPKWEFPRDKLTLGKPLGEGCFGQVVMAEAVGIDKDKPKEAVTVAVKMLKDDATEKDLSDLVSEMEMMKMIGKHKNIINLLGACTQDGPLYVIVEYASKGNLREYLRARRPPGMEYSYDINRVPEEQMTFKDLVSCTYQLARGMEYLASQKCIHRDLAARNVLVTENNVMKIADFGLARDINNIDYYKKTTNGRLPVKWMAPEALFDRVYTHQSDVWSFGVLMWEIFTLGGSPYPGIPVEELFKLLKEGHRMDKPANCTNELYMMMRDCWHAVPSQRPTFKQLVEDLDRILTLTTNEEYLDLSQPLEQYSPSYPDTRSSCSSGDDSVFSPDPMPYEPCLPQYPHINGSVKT
T2 sequence (P11362 22-822): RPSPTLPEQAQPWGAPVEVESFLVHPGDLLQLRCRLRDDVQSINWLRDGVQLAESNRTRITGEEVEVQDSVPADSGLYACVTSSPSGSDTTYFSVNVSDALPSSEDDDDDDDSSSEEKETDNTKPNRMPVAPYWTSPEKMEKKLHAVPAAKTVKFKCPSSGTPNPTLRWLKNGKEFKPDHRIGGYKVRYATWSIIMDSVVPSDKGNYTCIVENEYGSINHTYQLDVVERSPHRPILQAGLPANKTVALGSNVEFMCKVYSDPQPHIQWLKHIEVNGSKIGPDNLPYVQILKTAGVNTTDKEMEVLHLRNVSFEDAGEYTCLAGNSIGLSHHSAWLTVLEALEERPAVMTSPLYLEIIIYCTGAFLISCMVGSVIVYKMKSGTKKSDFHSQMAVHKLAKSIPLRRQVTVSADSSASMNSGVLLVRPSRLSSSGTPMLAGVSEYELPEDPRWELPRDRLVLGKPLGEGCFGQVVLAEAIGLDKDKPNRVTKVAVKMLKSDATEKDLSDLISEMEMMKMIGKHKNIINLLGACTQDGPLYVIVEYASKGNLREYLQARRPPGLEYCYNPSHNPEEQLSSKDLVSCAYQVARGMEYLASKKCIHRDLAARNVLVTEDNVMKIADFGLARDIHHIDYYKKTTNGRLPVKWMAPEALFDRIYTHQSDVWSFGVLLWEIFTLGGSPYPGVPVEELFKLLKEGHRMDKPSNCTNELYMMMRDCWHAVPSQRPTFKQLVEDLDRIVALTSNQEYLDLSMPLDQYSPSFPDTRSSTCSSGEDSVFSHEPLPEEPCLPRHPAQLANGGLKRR
T1 sequence (P22607 23-806 V555M): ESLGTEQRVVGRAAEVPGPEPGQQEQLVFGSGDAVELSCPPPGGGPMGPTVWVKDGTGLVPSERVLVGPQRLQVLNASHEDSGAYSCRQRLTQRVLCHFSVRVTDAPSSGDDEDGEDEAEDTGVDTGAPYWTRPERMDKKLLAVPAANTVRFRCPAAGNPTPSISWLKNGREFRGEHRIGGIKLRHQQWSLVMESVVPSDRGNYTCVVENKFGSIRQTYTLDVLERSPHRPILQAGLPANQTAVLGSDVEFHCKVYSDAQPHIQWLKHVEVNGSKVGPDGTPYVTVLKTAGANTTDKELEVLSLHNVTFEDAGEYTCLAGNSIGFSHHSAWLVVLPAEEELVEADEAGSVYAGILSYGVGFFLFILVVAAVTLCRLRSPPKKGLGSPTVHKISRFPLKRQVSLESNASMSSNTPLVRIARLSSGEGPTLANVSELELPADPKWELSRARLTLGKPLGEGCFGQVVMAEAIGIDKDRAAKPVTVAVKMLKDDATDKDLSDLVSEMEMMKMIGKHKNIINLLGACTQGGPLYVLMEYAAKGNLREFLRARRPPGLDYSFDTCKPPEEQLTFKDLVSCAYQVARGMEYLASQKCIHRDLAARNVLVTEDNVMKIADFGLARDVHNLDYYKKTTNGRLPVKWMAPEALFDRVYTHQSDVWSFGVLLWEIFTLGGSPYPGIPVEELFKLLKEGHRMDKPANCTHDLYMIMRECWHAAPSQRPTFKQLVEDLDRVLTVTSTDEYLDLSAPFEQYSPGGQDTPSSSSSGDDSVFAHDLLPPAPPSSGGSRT
T3 sequence (P22607 23-806): as the sequence (P22607 23-806 V555M) above, with M533V counted along it

On to `C=CC(=O)Nc1cnc2c(c1)c(C)cn2-c1nc(Nc2cc(C)n(C(=O)OC(C)(C)C)n2)ncc1C` [Example 124, tert-butyl 5-methyl-3-[[5-methyl-4-[3-methyl-5-(prop-2-enoylamino)pyrrolo[2,3-b]pyridin-1-yl]pyrimidin-2-yl]amino]pyrazole-1-carboxylate], for which the Kd lay in the range of 0.1 to 100 nM in assay [1], 100 to 250 nM in assay [2], 0.1 to 100 nM in assay [3] and 100 to 250 nM in assay [5]. The IC50 in assay [4] is 0.1 to 100 nM.
For the molecule `C=CC(=O)Nc1ccc2c(-c3ccnc(Nc4cnn(C5CC5)c4)n3)cn(C)c2c1` [Example 178, N-[3-[2-[(1-cyclopropylpyrazol-4-yl)amino]pyrimidin-4-yl]-1-methyl-indol-6-yl]prop-2-enamide], the dissociation constant (Kd) in assay [1], in assay [2], in assay [3] and in assay [5] was 0.1 to 100 nM each time. Also, the half-inhibitory concentration (IC50) in assay [4] was in the range of 0.1 to 100 nM.
`C=CC(=O)Nc1ccc2c(-c3ccnc(Nc4cc(C)n(C)n4)n3)cn(C)c2c1` [Example 103, N-[3-[2-[(1,5-dimethylpyrazol-3-yl)amino]pyrimidin-4-yl]-1-methyl-indol-6-yl]prop-2-enamide]: the Kd in assay [1] is 100 to 250 nM; in assay [2] it was 250 to 1000 nM; in assay [3] it was 0.1 to 100 nM; in assay [5], 100 to 250 nM. Also, the IC50 in assay [4] lay in the range of 0.1 to 100 nM.
As to `C=CC(=O)Nc1ccc2c(c1)c(C)cn2-c1nc(Nc2cnn(CC(C)O)c2)ncc1F` (stereo not drawn) [Example 158, N-[1-[5-fluoro-2-[[1-(2-hydroxypropyl)pyrazol-4-yl]amino]pyrimidin-4-yl]-3-methyl-indol-5-yl]prop-2-enamide], the Kd in assay [1], in assay [2], in assay [3] and in assay [5] was 0.1 to 100 nM each time. Also, in assay [4], the IC50 was 0.1 to 100 nM.
Turning to `Cc1cn(-c2nc(Nc3cnn(CCO)c3)ncc2F)c2ccc(NC(=O)/C=C/CN(C)C)cc12` [Example 144, (E)-4-(dimethylamino)-N-[1-[5-fluoro-2-[[1-(2-hydroxyethyl)pyrazol-4-yl]amino]pyrimidin-4-yl]-3-methyl-indol-5-yl]but-2-enamide], the Kd in assay [1], in assay [2], in assay [3] and in assay [5] was 0.1 to 100 nM in each case. In assay [4], the IC50 is 0.1 to 100 nM.
As to `Cc1cnc(Nc2ccnn2C)nc1-n1cc(C)c2cc(NC(=O)/C=C/CN(C)C)ccc21` [Example 107, (E)-4-(dimethylamino)-N-[3-methyl-1-[5-methyl-2-[(2-methylpyrazol-3-yl)amino]pyrimidin-4-yl]indol-5-yl]but-2-enamide], the Kd lay within 0.1 to 100 nM in assay [1], 250 to 1000 nM in assay [2], 0.1 to 100 nM in assay [3] and 100 to 250 nM in assay [5]. For the same molecule, the IC50 in assay [4] is 0.1 to 100 nM.
Take `C=CC(=O)Nc1ccc2c(c1)c(C)cn2-c1nc(Nc2cn(CC(F)F)nc2C)ncc1F` [Example 164, N-[1-[2-[[1-(2,2-difluoroethyl)-3-methyl-pyrazol-4-yl]amino]-5-fluoro-pyrimidin-4-yl]-3-methyl-indol-5-yl]prop-2-enamide]: the dissociation constant Kd in assay [1], in assay [2], in assay [3] and in assay [5] was 0.1 to 100 nM each time. Further, the half-inhibitory concentration (IC50) in assay [4] lay in the range of 0.1 to 100 nM.
For `C=CC(=O)Nc1ccc2c(c1)c(C)cn2-c1nc(Nc2cnn(C3CCOCC3)c2)ncc1F` [Example 208, N-[1-[5-fluoro-2-[(1-tetrahydropyran-4-ylpyrazol-4-yl)amino]pyrimidin-4-yl]-3-methyl-indol-5-yl]prop-2-enamide], the dissociation constant Kd in assay [1], in assay [2], in assay [3] and in assay [5] was 0.1 to 100 nM in each case. For the same molecule, the IC50 in assay [4] lay in the range of 0.1 to 100 nM.
`C=CC(=O)Nc1ccc2c(c1)c(C)cn2-c1nc(Nc2cnc(C)nc2C)ncc1F` [Example 150, N-[1-[2-[(2,4-dimethylpyrimidin-5-yl)amino]-5-fluoro-pyrimidin-4-yl]-3-methyl-indol-5-yl]prop-2-enamide]: the Kd was in the range of 100 to 250 nM in assay [1], 250 to 1000 nM in assay [2], 0.1 to 100 nM in assay [3] and 0.1 to 100 nM in assay [5]. For the same molecule, in assay [4], the IC50 was 0.1 to 100 nM.
For the molecule `C=CC(=O)Nc1ccc2c(c1)c(C)cn2-c1nc(Nc2cnsc2)ncc1F` [Example 148, N-[1-[5-fluoro-2-(isothiazol-4-ylamino)pyrimidin-4-yl]-3-methyl-indol-5-yl]prop-2-enamide], the dissociation constant Kd in assay [1], in assay [2], in assay [3] and in assay [5] was 0.1 to 100 nM each time. For the same molecule, the IC50 in assay [4] fell in the range of 0.1 to 100 nM.
Take `C=CC(=O)Nc1ccc2c(-c3ccnc(Nc4cnn(C)c4)n3)cn(C)c2c1` [Example 201, N-[3-[2-[(1-methylpyrazol-4-yl)amino]pyrimidin-4-yl]-1-methyl-indol-6-yl]prop-2-enamide]: the Kd in assay [1], in assay [2], in assay [3] and in assay [5] was 0.1 to 100 nM in each case. The IC50 in assay [4] lay in the range of 0.1 to 100 nM.
As to `C=CC(=O)Nc1ccc2c(c1)c(C)cn2-c1nc(Nc2cn(CCO)nc2C)ncc1F` [Example 176, N-[1-[5-fluoro-2-[[1-(2-hydroxyethyl)-3-methyl-pyrazol-4-yl]amino]pyrimidin-4-yl]-3-methyl-indol-5-yl]prop-2-enamide], the Kd in assay [1], in assay [2], in assay [3] and in assay [5] was 0.1 to 100 nM in each case. In assay [4], the IC50 was 0.1 to 100 nM.
As to `Cc1nn(C)cc1Nc1ncc(Cl)c(-n2cc(C)c3cc(NC(=O)/C=C/CN(C)C)cnc32)n1` [Example 180, (E)-N-[1-[5-chloro-2-[(1,3-dimethylpyrazol-4-yl)amino]pyrimidin-4-yl]-3-methyl-pyrrolo[2,3-b]pyridin-5-yl]-4-(dimethylamino)but-2-enamide], the Kd lay in the range of 0.1 to 100 nM in assay [1], 100 to 250 nM in assay [2], 0.1 to 100 nM in assay [3] and 0.1 to 100 nM in assay [5]. The IC50 in assay [4] lay in the range of 0.1 to 100 nM.
In the case of `C=CC(=O)Nc1ccc2c(c1)c(C)cn2-c1nc(Nc2cc(C)[nH]n2)ncc1C` [Example 123, N-[3-methyl-1-[5-methyl-2-[(5-methyl-1H-pyrazol-3-yl)amino]pyrimidin-4-yl]indol-5-yl]prop-2-enamide], the Kd in assay [1], in assay [2], in assay [3] and in assay [5] was 0.1 to 100 nM in each case. The IC50 in assay [4] was 0.1 to 100 nM.
As for `C=CC(=O)Nc1ccc2c(-c3nc(Nc4cnn(CCO)c4)ncc3Cl)cn(C)c2c1` [Example 127, N-[3-[5-chloro-2-[[1-(2-hydroxyethyl)pyrazol-4-yl]amino]pyrimidin-4-yl]-1-methyl-indol-6-yl]prop-2-enamide], the Kd in assay [1], in assay [2], in assay [3] and in assay [5] was 0.1 to 100 nM in each case. Moreover, the IC50 in assay [4] was in the range of 0.1 to 100 nM.
As for `C=CC(=O)Nc1ccc2c(c1)c(C)cn2-c1nc(Nc2ccn(CCO)n2)ncc1C` [Example 100, N-[1-[2-[[1-(2-hydroxyethyl)pyrazol-3-yl]amino]-5-methyl-pyrimidin-4-yl]-3-methyl-indol-5-yl]prop-2-enamide], the equilibrium dissociation constant (Kd) in assay [1], in assay [2], in assay [3] and in assay [5] was 0.1 to 100 nM each time. Besides, in assay [4], the IC50 was 0.1 to 100 nM.
`Cc1cnc(Nc2cnn(CCO)c2)nc1-n1cc(C)c2cc(NC(=O)/C=C/CN(C)C)ccc21` [Example 122, (E)-4-(dimethylamino)-N-[1-[2-[[1-(2-hydroxyethyl)pyrazol-4-yl]amino]-5-methyl-pyrimidin-4-yl]-3-methyl-indol-5-yl]but-2-enamide]: the Kd in assay [1], in assay [2], in assay [3] and in assay [5] was 0.1 to 100 nM in each case. The IC50 in assay [4] lay within 0.1 to 100 nM.
For `C=CC(=O)Nc1ccc2c(c1)c(C)cn2-c1nc(Nc2cn(CC(F)(F)F)nc2C)ncc1F` [Example 165, N-[1-[5-fluoro-2-[[3-methyl-1-(2,2,2-trifluoroethyl)pyrazol-4-yl]amino]pyrimidin-4-yl]-3-methyl-indol-5-yl]prop-2-enamide], the Kd in assay [1], in assay [2], in assay [3] and in assay [5] was 0.1 to 100 nM in each case. For the same molecule, the IC50 in assay [4] lay within 0.1 to 100 nM.
